Experimental data reported in ChEMBL document CHEMBL1909046, “DrugMatrix in vitro pharmacology data”.

Tests used:
Interstitial collagenase = molecular target: T1, Interstitial collagenase (Homo sapiens, UniProt P03956); assay: biochemical; format: tissue-based, Rheumatoid synovial fibroblasts;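 note: MMP-1 enzyme inhibition assay using a peptide substrate; in other assays of this panel Not Active means under 50% inhibition at 10 µM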
T1 sequence (P03956 whole entry): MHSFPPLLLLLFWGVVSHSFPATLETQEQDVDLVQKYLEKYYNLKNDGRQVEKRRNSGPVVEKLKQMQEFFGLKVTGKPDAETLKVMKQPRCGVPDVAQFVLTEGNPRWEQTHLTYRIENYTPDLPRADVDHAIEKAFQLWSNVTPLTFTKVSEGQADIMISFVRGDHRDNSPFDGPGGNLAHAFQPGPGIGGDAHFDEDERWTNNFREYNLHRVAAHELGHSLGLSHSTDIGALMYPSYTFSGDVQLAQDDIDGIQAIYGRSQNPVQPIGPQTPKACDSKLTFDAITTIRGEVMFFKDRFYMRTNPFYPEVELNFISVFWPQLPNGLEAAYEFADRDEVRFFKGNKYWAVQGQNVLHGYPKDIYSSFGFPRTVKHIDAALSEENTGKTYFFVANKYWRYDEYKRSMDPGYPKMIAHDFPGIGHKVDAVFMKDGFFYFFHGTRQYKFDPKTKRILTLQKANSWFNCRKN

Cytochrome P450 2D6 = Cytochrome P450 2D6 (Homo sapiens, UniProt P10635); details: bti-tn-5b1-4; note: in other assays of this panel Not Active means under 50% inhibition at 10 µM
[1] = molecular target: T2, Type-2 angiotensin II receptor (Homo sapiens, UniProt P50052); format: cell-based; details: cho-k1; note: in other assays of this panel Not Active means under 50% inhibition at 10 µM
T2 sequence (P50052 whole entry): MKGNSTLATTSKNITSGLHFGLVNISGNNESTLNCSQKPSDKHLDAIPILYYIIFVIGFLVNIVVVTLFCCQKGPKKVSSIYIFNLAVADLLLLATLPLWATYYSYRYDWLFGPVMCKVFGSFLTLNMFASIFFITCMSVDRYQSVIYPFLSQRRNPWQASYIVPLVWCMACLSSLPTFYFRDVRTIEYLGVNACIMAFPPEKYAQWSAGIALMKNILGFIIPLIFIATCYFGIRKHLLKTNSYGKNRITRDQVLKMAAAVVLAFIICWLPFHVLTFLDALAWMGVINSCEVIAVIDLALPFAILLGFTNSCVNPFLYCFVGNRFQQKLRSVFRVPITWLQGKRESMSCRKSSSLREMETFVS

[2] = DRUGMATRIX: Phosphodiesterase PDE4 enzyme inhibition (substrate: [3H]cAMP + cAMP); details: u-937; Not Active = under 50% inhibition at 10 µM
Cytochrome P450 3A4 = Cytochrome P450 3A4 (Homo sapiens, UniProt P08684); details: bti-tn-5b1-4; note: in other assays of this panel Not Active means under 50% inhibition at 10 µM
Cytochrome P450 1A2 = molecular target: T3, Cytochrome P450 1A2 (Homo sapiens, UniProt P05177); details: bti-tn-5b1-4; note: in other assays of this panel Not Active means under 50% inhibition at 10 µM
T3 sequence (P05177 whole entry): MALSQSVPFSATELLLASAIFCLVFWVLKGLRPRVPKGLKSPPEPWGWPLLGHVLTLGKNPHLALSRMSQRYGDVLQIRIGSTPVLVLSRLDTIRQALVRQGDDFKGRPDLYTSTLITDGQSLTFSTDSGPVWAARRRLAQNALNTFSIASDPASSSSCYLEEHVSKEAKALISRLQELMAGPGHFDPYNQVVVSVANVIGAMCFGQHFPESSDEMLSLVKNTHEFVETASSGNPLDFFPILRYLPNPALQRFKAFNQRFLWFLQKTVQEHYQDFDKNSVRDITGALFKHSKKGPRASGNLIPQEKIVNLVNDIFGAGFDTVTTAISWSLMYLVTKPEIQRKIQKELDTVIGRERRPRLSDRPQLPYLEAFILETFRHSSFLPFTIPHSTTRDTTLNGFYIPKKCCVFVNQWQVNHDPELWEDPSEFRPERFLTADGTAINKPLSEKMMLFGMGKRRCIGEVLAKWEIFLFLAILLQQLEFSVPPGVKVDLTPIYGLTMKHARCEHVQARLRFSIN

[3] = molecular target: Beta-3 adrenergic receptor (Homo sapiens, UniProt P13945); assay: DRUGMATRIX: Adrenergic beta3 radioligand binding (ligand: [125I] Cyanopindolol); format: cell membranes, HEK293, Membrane; details: hek293; Not Active = under 50% inhibition at 10 µM
[4] = molecular target: Prostaglandin G/H synthase 1 (Homo sapiens, UniProt P23219); assay: biochemical; format: tissue-based, Platelet
Sequence of Prostaglandin G/H synthase 1 (P23219 whole entry): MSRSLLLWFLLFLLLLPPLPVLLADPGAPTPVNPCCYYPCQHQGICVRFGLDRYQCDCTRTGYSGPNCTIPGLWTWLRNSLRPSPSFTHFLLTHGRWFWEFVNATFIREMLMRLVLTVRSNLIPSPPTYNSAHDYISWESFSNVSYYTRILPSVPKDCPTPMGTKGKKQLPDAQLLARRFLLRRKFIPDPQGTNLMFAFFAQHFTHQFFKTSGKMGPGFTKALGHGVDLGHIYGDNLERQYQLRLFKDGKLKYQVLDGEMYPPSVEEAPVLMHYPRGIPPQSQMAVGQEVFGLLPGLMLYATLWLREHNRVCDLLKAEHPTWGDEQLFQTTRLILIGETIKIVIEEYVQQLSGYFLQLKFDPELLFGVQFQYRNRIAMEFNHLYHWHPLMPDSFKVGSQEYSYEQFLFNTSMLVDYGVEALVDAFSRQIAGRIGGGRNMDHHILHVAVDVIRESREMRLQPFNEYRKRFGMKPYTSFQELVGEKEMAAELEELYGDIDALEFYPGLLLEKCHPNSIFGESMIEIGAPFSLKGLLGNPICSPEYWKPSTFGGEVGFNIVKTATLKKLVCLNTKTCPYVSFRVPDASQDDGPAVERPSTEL

Sequence of Beta-3 adrenergic receptor (P13945 whole entry): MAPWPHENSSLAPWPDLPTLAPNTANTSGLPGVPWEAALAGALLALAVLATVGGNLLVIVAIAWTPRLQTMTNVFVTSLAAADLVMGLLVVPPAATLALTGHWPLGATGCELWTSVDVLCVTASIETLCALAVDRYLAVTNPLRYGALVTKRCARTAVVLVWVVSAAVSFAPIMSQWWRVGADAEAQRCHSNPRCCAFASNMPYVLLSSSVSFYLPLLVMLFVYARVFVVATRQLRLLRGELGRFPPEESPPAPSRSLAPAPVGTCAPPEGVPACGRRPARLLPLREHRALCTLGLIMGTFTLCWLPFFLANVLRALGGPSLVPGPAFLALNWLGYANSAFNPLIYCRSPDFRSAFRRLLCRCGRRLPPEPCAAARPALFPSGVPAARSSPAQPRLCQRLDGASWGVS
Sequence of Cytochrome P450 2D6 (P10635 whole entry): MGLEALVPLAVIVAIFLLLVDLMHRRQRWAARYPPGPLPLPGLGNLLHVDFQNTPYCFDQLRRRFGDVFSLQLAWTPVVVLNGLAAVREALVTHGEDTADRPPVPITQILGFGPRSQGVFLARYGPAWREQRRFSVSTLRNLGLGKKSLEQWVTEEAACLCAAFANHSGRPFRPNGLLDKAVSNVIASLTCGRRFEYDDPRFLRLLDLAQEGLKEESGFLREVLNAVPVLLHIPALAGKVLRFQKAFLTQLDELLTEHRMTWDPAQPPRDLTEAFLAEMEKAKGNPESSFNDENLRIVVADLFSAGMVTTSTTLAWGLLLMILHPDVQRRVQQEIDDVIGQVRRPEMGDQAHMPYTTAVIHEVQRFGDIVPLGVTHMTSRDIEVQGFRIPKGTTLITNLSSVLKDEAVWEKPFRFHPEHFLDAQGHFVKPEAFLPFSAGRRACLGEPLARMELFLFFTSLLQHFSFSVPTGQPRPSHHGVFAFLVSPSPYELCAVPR
Sequence of Cytochrome P450 3A4 (P08684 whole entry): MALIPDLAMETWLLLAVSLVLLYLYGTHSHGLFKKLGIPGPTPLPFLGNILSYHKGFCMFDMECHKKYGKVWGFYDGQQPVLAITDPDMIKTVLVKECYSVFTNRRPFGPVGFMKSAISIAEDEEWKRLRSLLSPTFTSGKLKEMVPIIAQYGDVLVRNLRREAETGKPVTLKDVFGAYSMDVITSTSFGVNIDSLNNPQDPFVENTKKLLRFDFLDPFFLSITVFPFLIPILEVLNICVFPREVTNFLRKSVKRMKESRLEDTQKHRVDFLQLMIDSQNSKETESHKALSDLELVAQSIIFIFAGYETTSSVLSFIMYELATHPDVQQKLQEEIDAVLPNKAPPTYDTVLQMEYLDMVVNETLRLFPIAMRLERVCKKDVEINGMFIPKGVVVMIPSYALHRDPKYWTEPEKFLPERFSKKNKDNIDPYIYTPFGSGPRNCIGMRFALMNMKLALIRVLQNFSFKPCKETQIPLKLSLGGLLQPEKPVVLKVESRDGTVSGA

## C[C@@H]1CN(c2c(F)c(N)c3c(=O)c(C(=O)O)cn(C4CC4)c3c2F)C[C@H](C)N1 [SPARFLOXACIN]
Interstitial collagenase
  IC50: Not Active
Cytochrome P450 2D6
  IC50: Not Active
  Ki: Not Active
[1]
  IC50: Not Active
[2]
  IC50: Not Active
  Ki: Not Active
Cytochrome P450 3A4
  IC50: Not Active
  Ki: Not Active
Cytochrome P450 1A2
  IC50: Not Active
  Ki: Not Active
[3]
  IC50: Not Active
[4]; platelet
  IC50: Not Active

## CC1(C)O[C@@H]2C[C@H]3[C@@H]4CCC5=CC(=O)C=C[C@]5(C)[C@@]4(F)[C@@H](O)C[C@]3(C)[C@]2(C(=O)CO)O1 [TRIAMCINOLONE ACETONIDE]
Interstitial collagenase
  IC50: Not Active
Cytochrome P450 2D6
  IC50: Not Active
  Ki: Not Active
[1]
  IC50: Not Active
[2]
  IC50: Not Active
  Ki: Not Active
Cytochrome P450 3A4
  IC50: Not Active
  Ki: Not Active
Cytochrome P450 1A2
  IC50: Not Active
  Ki: Not Active
[3]
  IC50: Not Active
[4]; platelet
  IC50: Not Active

## N[C@@H](Cc1ccc(O)c(O)c1)C(=O)O [LEVODOPA]
Interstitial collagenase
  IC50: Not Active
Cytochrome P450 2D6
  IC50: Not Active
  Ki: Not Active
[1]
  IC50: Not Active
[2]
  IC50: Not Active
  Ki: Not Active
Cytochrome P450 3A4
  IC50: Not Active
  Ki: Not Active
Cytochrome P450 1A2
  IC50: Not Active
  Ki: Not Active
[3]
  IC50: Not Active
[4]; platelet
  IC50: Not Active

## O=NN(CCCl)C(=O)NC1CCCCC1 [LOMUSTINE]
Interstitial collagenase
  IC50: Not Active
Cytochrome P450 2D6
  IC50: Not Active
  Ki: Not Active
[1]
  IC50: Not Active
[2]
  IC50: Not Active
  Ki: Not Active
Cytochrome P450 3A4
  IC50: Not Active
  Ki: Not Active
Cytochrome P450 1A2
  IC50: Not Active
  Ki: Not Active
[3]
  IC50: Not Active
[4]; platelet
  IC50: Not Active

## Cc1c(C)c2c(c(C)c1O)CCC(C)(COc1ccc(CC3SC(=O)NC3=O)cc1)O2 (stereo unspecified) [TROGLITAZONE]
Interstitial collagenase
  IC50: Not Active
Cytochrome P450 2D6
  IC50: Not Active
  Ki: Not Active
[1]
  IC50: Not Active
[2]
  IC50: Not Active
  Ki: Not Active
Cytochrome P450 3A4
  IC50: Not Active
  Ki: Not Active
Cytochrome P450 1A2
  IC50: Not Active
  Ki: Not Active
[3]
  IC50: Not Active
[4]; platelet
  IC50: Not Active

## Cc1cccc(N(C)C(=S)Oc2ccc3ccccc3c2)c1 [TOLNAFTATE]
Interstitial collagenase
  IC50: Not Active
Cytochrome P450 2D6
  IC50: Not Active
  Ki: Not Active
[1]
  IC50: Not Active
[2]
  IC50: Not Active
  Ki: Not Active
Cytochrome P450 3A4
  IC50: Not Active
  Ki: Not Active
Cytochrome P450 1A2
  IC50: Not Active
  Ki: Not Active
[3]
  IC50: Not Active
[4]; platelet
  IC50: Not Active

## NC[C@H]1CC[C@H](C(=O)O)CC1 [TRANEXAMIC ACID]
Interstitial collagenase
  IC50: Not Active
Cytochrome P450 2D6
  IC50: Not Active
  Ki: Not Active
[1]
  IC50: Not Active
[2]
  IC50: Not Active
  Ki: Not Active
Cytochrome P450 3A4
  IC50: Not Active
  Ki: Not Active
Cytochrome P450 1A2
  IC50: Not Active
  Ki: Not Active
[3]
  IC50: Not Active
[4]; platelet
  IC50: Not Active

## c1ccc([C@H]2CN3CCSC3=N2)cc1 [LEVAMISOLE]
Interstitial collagenase
  IC50: Not Active
Cytochrome P450 2D6
  IC50: Not Active
  Ki: Not Active
[1]
  IC50: Not Active
[2]
  IC50: Not Active
  Ki: Not Active
Cytochrome P450 3A4
  IC50: Not Active
  Ki: Not Active
Cytochrome P450 1A2
  IC50: Not Active
  Ki: Not Active
[3]
  IC50: Not Active
[4]; platelet
  IC50: Not Active

## CC(C)(C)NC(=O)[C@@H]1C[C@@H]2CCCC[C@@H]2CN1C[C@@H](O)[C@H](Cc1ccccc1)NC(=O)[C@H](CC(N)=O)NC(=O)c1ccc2ccccc2n1
Interstitial collagenase
  IC50: Not Active
Cytochrome P450 2D6
  IC50: Not Active
  Ki: Not Active
[1]
  IC50: Not Active
[2]
  IC50: Not Active
  Ki: Not Active
Cytochrome P450 3A4
  IC50: Not Active
  Ki: Not Active
Cytochrome P450 1A2
  IC50: Not Active
  Ki: Not Active
[3]
  IC50: Not Active
[4]; platelet
  IC50: Not Active

## Nc1nc2nc[nH]c2c(=S)[nH]1 [THIOGUANINE]
Interstitial collagenase
  IC50: Not Active
Cytochrome P450 2D6
  IC50: Not Active
  Ki: Not Active
[1]
  IC50: Not Active
[2]
  IC50: Not Active
  Ki: Not Active
Cytochrome P450 3A4
  IC50: Not Active
  Ki: Not Active
Cytochrome P450 1A2
  IC50: Not Active
  Ki: Not Active
[3]
  IC50: Not Active
[4]; read-out: IC50
  IC50: 601 nM

## SODIUM NITROPRUSSIDE
Interstitial collagenase
  IC50: Not Active
  Ki: Not Active
Cytochrome P450 2D6
  IC50: Not Active
  Ki: Not Active
[1]
  IC50: Not Active
  Ki: Not Active
[2]
  IC50: Not Active
  Ki: Not Active
Cytochrome P450 3A4
  IC50: Not Active
  Ki: Not Active
Cytochrome P450 1A2
  IC50: Not Active
  Ki: Not Active
[3]
  IC50: Not Active
  Ki: Not Active
[4]; platelet
  IC50: Not Active
  Ki: Not Active

## COc1c(C)c2c(c(O)c1C/C=C(\C)CCC(=O)O)C(=O)OC2 [MYCOPHENOLIC ACID]
Interstitial collagenase
  IC50: Not Active
Cytochrome P450 2D6
  IC50: Not Active
  Ki: Not Active
[1]
  IC50: Not Active
[2]
  IC50: Not Active
  Ki: Not Active
Cytochrome P450 3A4
  IC50: Not Active
  Ki: Not Active
Cytochrome P450 1A2
  IC50: Not Active
  Ki: Not Active
[3]
  IC50: Not Active
[4]; platelet
  IC50: Not Active

## CCCOc1ccccc1-c1nc2nn[nH]c2c(=O)[nH]1 [ZAPRINAST]
Interstitial collagenase
  IC50: Not Active
Cytochrome P450 2D6
  IC50: Not Active
  Ki: Not Active
[1]
  IC50: Not Active
[2]
  IC50: Not Active
  Ki: Not Active
Cytochrome P450 3A4
  IC50: Not Active
  Ki: Not Active
Cytochrome P450 1A2
  IC50: Not Active
  Ki: Not Active
[3]
  IC50: Not Active
[4]; platelet
  IC50: Not Active

## C=CCC1(C(C)CCC)C(=O)NC(=O)NC1=O (stereo unspecified) [SECOBARBITAL]
Interstitial collagenase
  IC50: Not Active
Cytochrome P450 2D6
  IC50: Not Active
  Ki: Not Active
[1]
  IC50: Not Active
[2]
  IC50: Not Active
  Ki: Not Active
Cytochrome P450 3A4
  IC50: Not Active
  Ki: Not Active
Cytochrome P450 1A2
  IC50: Not Active
  Ki: Not Active
[3]
  IC50: Not Active
[4]; platelet
  IC50: Not Active

## CC(=O)[C@@]1(O)CC[C@H]2[C@@H]3C[C@H](C)C4=CC(=O)CC[C@]4(C)[C@H]3CC[C@@]21C
Interstitial collagenase
  IC50: Not Active
Cytochrome P450 2D6
  IC50: Not Active
  Ki: Not Active
[1]
  IC50: Not Active
[2]
  IC50: Not Active
  Ki: Not Active
Cytochrome P450 3A4
  IC50: Not Active
  Ki: Not Active
Cytochrome P450 1A2
  IC50: Not Active
  Ki: Not Active
[3]
  IC50: Not Active
[4]; platelet
  IC50: Not Active

## N#CC(C#N)=Cc1ccc(O)c(O)c1 [TYRPHOSTIN 23]
Interstitial collagenase
  IC50: Not Active
Cytochrome P450 2D6
  IC50: Not Active
  Ki: Not Active
[1]
  IC50: Not Active
[2]
  IC50: Not Active
  Ki: Not Active
Cytochrome P450 3A4
  IC50: Not Active
  Ki: Not Active
Cytochrome P450 1A2
  IC50: Not Active
  Ki: Not Active
[3]
  IC50: Not Active
[4]; platelet
  IC50: Not Active
